# Target: T1, Neuropeptide Y receptor type 2 (Homo sapiens, UniProt P49146)
# T1 sequence (P49146 whole entry): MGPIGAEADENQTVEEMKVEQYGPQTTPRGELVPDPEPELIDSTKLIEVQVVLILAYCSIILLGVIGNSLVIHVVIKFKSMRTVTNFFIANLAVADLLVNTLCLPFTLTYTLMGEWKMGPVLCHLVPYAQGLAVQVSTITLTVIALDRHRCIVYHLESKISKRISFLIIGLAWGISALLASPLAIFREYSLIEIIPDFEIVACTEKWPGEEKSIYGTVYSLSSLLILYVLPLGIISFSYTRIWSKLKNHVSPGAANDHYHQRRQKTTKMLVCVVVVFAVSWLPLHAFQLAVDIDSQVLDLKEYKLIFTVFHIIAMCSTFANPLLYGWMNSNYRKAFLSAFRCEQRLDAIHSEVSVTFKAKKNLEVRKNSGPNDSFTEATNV
# Experiment: Binding affinity against SMS-KAN cell membranes endogenously expressing Neuropeptide Y receptor type 2 using [125I]PYY as radioligand
row,SMILES,IC50 [µM]
1,CN(C)CCCN(C(=O)c1sc2ccccc2c1Cl)c1ccccc1SCc1ccccc1,> 10
2,CN(C)CCCN(C(=O)c1cc2ccccc2o1)c1ccccc1SCc1ccccc1,> 10
3,CN(C)CCCN(C(=O)c1cc2ccccc2s1)c1ccccc1NC(=O)c1ccccc1,> 10
4,CN(C)CCCN(C(=O)/C=C/c1ccccc1)c1ccccc1SCc1ccccc1,10
5,CC(C(=O)N(CCCN(C)C)c1ccccc1SCc1ccccc1)c1ccccc1 (stereo not drawn),1
6,CN(C)CCCN(C(=O)[C@@H]1C[C@H]1c1ccccc1)c1ccccc1SCc1ccccc1,3.7
7,CN(C)CCCN(C(=O)c1cc2ccccc2s1)c1ccccc1CCc1ccccc1,> 10

# Other lines, results leading:
row,IC50 [µM],SMILES
1,> 10,CNCCCN(C(=O)c1cc2ccccc2s1)c1ccccc1SCc1ccccc1
2,> 10,CN(C)CCN(C(=O)c1cc2ccccc2s1)c1ccccc1SCc1ccccc1
3,> 10,CN(C)CCCN(C(=O)c1cc2ccccc2s1)c1ccccc1-c1ccccc1
4,> 10,CN(C)CCCCN(C(=O)c1cc2ccccc2s1)c1ccccc1SCc1ccccc1
5,> 10,CN(C)CCCN(C(=O)c1cc2ccccc2s1)c1ccccc1Cc1ccccc1
6,2.2,CCCCc1ccccc1N(CCCN(C)C)C(=O)c1cc2ccccc2s1
